Source: US8906904B2, “Alkoxy pyrazoles as soluble guanylate cyclase activators” (Boehringer Ingelheim International GmbH, priority 2012, dated 2014)
≈ marks a conversion by molar mass, not a printed value.

Tests used:
[1] = target: T1, human soluble guanylate cyclase alpha 1 and beta 1 subunits (sGC) (Homo sapiens, UniProt Q02108+Q02153); test: sGC cellular activator assay (cGMP, HTRF); type: cell-based; settings: CHO cells stably expressing human sGC alpha 1/beta 1, preincubated with 40 microM ODQ; cGMP readout; assay run with and without 50% human serum, Table 2 does not say which
T1 construct: expressed in transfected cells; host or cells: Chinese hamster ovary (CHO) cells, stably transfected
T1 sequence (Q02108 1-690): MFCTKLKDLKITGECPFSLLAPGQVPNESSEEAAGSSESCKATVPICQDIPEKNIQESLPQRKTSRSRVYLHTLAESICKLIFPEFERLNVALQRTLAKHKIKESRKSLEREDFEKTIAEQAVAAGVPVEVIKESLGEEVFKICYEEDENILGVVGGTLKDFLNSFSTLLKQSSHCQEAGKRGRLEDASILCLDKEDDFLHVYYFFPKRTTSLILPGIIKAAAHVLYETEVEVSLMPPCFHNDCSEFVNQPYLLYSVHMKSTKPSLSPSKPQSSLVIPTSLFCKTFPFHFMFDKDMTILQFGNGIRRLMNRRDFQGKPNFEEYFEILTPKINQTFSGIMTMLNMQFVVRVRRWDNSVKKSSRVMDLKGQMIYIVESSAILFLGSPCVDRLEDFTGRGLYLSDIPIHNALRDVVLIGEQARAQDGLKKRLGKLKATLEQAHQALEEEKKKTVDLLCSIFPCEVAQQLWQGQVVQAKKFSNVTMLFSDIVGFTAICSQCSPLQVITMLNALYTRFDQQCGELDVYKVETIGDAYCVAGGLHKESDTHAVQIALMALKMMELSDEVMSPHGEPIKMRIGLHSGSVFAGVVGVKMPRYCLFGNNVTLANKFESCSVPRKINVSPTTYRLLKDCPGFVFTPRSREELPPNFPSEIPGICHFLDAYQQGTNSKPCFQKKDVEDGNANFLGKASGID
T1 sequence (Q02153 1-619): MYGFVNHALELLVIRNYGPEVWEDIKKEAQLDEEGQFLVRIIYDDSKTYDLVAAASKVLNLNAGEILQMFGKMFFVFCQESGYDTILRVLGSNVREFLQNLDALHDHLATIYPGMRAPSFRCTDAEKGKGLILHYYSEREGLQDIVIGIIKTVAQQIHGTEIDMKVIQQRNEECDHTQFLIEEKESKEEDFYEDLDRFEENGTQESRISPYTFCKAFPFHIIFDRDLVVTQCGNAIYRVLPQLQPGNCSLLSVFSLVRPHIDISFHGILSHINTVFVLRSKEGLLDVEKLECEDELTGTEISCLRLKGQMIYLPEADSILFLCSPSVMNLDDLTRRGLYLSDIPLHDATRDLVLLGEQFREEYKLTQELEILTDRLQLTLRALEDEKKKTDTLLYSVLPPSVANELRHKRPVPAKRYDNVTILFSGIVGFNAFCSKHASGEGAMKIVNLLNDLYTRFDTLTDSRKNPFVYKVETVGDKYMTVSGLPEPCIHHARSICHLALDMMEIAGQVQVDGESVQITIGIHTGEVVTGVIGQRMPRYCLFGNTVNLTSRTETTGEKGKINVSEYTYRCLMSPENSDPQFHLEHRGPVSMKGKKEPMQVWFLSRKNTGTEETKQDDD
Procedure, shortened: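 Heme-oxidized conditions: ODQ (40 microM, 1 h) pretreatment of CHO cells stably expressing human α1/β1 sGC, in buffer containing 0.1% BSA and IBMX.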

[2] = Assessment of solubility (McIlvaine buffers, 24 h shake, UPLC-UV); type: physicochemical; settings: kinetic from dmso stock
Procedure, shortened: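 Compounds from 10 mM DMSO stocks were shaken for 24 h at room temperature in McIlvaine buffers at pH 2.2, 4.5 and 6.8 (2.5% v/v DMSO final), then filtered. Filtrates were quantified by UPLC-UV at 254 nm against a 50:50 acetonitrile/water reference assumed fully dissolved, as a single determination.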

| Structure (SMILES) | EC50 [1] | solubility at 24 h ([2]; pH 2.2, aqueous buffer) | solubility at 24 h ([2]; pH 4.5, aqueous buffer) | solubility at 24 h ([2]; pH 6.8, aqueous buffer) |
| --- | --- | --- | --- | --- |
| CCOc1c(C(=O)O)cnn1-c1cccc(-c2cccc(C)c2OCc2ccc3c(c2C)CCN(C[C@H]2CCCCO2)C3)n1 [Compound 232] | 0.0095 µM | 93 µg/mL (≈ 156 µM) | 74 µg/mL (≈ 124 µM) | 63 µg/mL (≈ 106 µM) |
| CCOc1c(C(=O)O)cnn1-c1cccc(-c2cccc(C)c2OCc2ccc3c(c2C)CCN(C[C@H]2CCCO2)CC3)n1 [Compound 233] | 0.011 µM | 98 µg/mL (≈ 164 µM) | 73 µg/mL (≈ 122 µM) | 86 µg/mL (≈ 144 µM) |
| COc1c(C(=O)O)cnn1-c1cccc(-c2cccc(C)c2OCc2ccc3c(c2F)CCN(C[C@H]2COCCO2)C3)n1 [Compound 234] | 0.013 µM | 120 µg/mL (≈ 204 µM) | 97 µg/mL (≈ 165 µM) | 91 µg/mL (≈ 155 µM) |
| CCOc1c(C(=O)O)cnn1-c1cccc(-c2cccc(C)c2OCc2ccc3c(c2C)CCN(C[C@@H]2CCCO2)CC3)n1 [Compound 235] | 0.02 µM | 100 µg/mL (≈ 168 µM) | 83 µg/mL (≈ 139 µM) | 88 µg/mL (≈ 147 µM) |
| CCOc1c(C(=O)O)cnn1-c1cccc(-c2cccc(C)c2OCc2ccc3c(c2C)CCN(C[C@@H]2CCCCO2)C3)n1 [Compound 236] | 0.028 µM | 110 µg/mL (≈ 184 µM) | 96 µg/mL (≈ 161 µM) | 83 µg/mL (≈ 139 µM) |
| COc1c(C(=O)O)cnn1-c1cccc(-c2cccc(C)c2OCc2cc(C)c3c(c2)CCN(C2CCCOC2)C3)n1 (stereo not shown) [Compound 237] | 0.0049 µM | 94 µg/mL (≈ 165 µM) | 55 µg/mL (≈ 96.7 µM) | 52 µg/mL (≈ 91.4 µM) |
| COc1c(C(=O)O)cnn1-c1cccc(-c2cccc(C)c2OCc2ccc3c(c2C)CCN(C2CCCOC2)C3)n1 (stereo not shown) [Compound 238] | 0.0051 µM | 77 µg/mL (≈ 135 µM) | 55 µg/mL (≈ 96.7 µM) | 52 µg/mL (≈ 91.4 µM) |
| COc1c(C(=O)O)cnn1-c1cccc(-c2cccc(C)c2OCc2cc(C)c3c(c2)CCN(CC2(C)COC2)C3)n1 [Compound 239] | 0.0065 µM | 91 µg/mL (≈ 160 µM) | 71 µg/mL (≈ 125 µM) | 72 µg/mL (≈ 127 µM) |
| COc1c(C(=O)O)cnn1-c1cccc(-c2cccc(C)c2OCc2cc(C)c3c(c2)CCN(CC2COCCO2)C3)n1 (stereo not shown) [Compound 240] | 0.0079 µM | 92 µg/mL (≈ 157 µM) | 69 µg/mL (≈ 118 µM) | 67 µg/mL (≈ 115 µM) |

Now from value to molecule:

| EC50 [1] | solubility at 24 h ([2]; pH 2.2, aqueous buffer) | solubility at 24 h ([2]; pH 4.5, aqueous buffer) | solubility at 24 h ([2]; pH 6.8, aqueous buffer) | Structure (SMILES) |
| --- | --- | --- | --- | --- |
| 0.008 µM | 100 µg/mL (≈ 176 µM) | 81 µg/mL (≈ 142 µM) | 84 µg/mL (≈ 148 µM) | CCOc1c(C(=O)O)cnn1-c1cccc(-c2cccc(C)c2OCc2cc(C)c3c(c2)CCN(C2CCOC2)C3)n1 (stereo not shown) [Compound 241] |
| 0.011 µM | 110 µg/mL (≈ 198 µM) | 79 µg/mL (≈ 142 µM) | 78 µg/mL (≈ 141 µM) | COc1c(C(=O)O)cnn1-c1cccc(-c2cccc(C)c2OCc2cc(C)c3c(c2)CCN(C2CCOC2)C3)n1 (stereo not shown) [Compound 242] |
| 0.016 µM | 100 µg/mL (≈ 167 µM) | 82 µg/mL (≈ 137 µM) | 81 µg/mL (≈ 135 µM) | CCOc1c(C(=O)O)cnn1-c1cccc(-c2cccc(C)c2OCc2cc(C)c3c(c2)CCN(CC2COCCO2)C3)n1 (stereo not shown) [Compound 243] |
| 0.023 µM | 120 µg/mL (≈ 216 µM) | 99 µg/mL (≈ 178 µM) | 98 µg/mL (≈ 176 µM) | COCC(C)N1CCc2cc(COc3c(C)cccc3-c3cccc(-n4ncc(C(=O)O)c4OC)n3)cc(C)c2C1 (stereo not shown) [Compound 244] |
| 0.28 µM | 100 µg/mL (≈ 172 µM) | 79 µg/mL (≈ 136 µM) | 92 µg/mL (≈ 158 µM) | CCOc1c(C(=O)O)cnn1-c1cccc(-c2cccc(C)c2OCc2ccc3c(c2)CCCN(C2CCCOC2)C3)n1 (stereo not shown) [Compound 245] |
| 0.0086 µM | 90 µg/mL (≈ 162 µM) | 75 µg/mL (≈ 135 µM) | 71 µg/mL (≈ 128 µM) | COc1c(C(=O)O)cnn1-c1cccc(-c2cccc(C)c2OCc2ccc3c(c2)CN(CC2COCCO2)C3)n1 (stereo not shown) [Compound 247] |
| 0.0042 µM | 94 µg/mL (≈ 161 µM) | 75 µg/mL (≈ 129 µM) | 74 µg/mL (≈ 127 µM) | CCc1cc(COc2c(C)cccc2-c2cccc(-n3ncc(C(=O)O)c3OC)n2)cc2c1CN(C1CCOCC1)CC2 [Compound 248] |
| 0.0046 µM | 94 µg/mL (≈ 169 µM) | 67 µg/mL (≈ 121 µM) | 93 µg/mL (≈ 168 µM) | CCc1cc(COc2c(C)cccc2-c2cccc(-n3ncc(C(=O)O)c3OC)n2)cc2c1CN(C1COC1)CC2 [Compound 249] |
| 0.044 µM | 110 µg/mL (≈ 190 µM) | 81 µg/mL (≈ 140 µM) | 86 µg/mL (≈ 148 µM) | COc1c(C(=O)O)cnn1-c1cccc(-c2cccc(C)c2OCc2cc(C#N)c3c(c2)CCN(C2CCOCC2)C3)n1 [Compound 250] |
| 0.007 µM | 100 µg/mL (≈ 179 µM) | 72 µg/mL (≈ 129 µM) | 77 µg/mL (≈ 138 µM) | COc1c(C(=O)O)cnn1-c1cccc(-c2cccc(C)c2OCc2ccc3c(c2F)CCN([C@H]2CCOC2)C3)n1 [Compound 251] |
| 0.01 µM | 94 µg/mL (≈ 168 µM) | 73 µg/mL (≈ 131 µM) | 62 µg/mL (≈ 111 µM) | COc1c(C(=O)O)cnn1-c1cccc(-c2cccc(C)c2OCc2ccc3c(c2F)CCN([C@@H]2CCOC2)C3)n1 [Compound 252] |
| 0.013 µM | 100 µg/mL (≈ 179 µM) | 75 µg/mL (≈ 134 µM) | 81 µg/mL (≈ 145 µM) | COc1c(C(=O)O)cnn1-c1cccc(-c2cccc(C)c2OCc2cc(F)c3c(c2)CCN([C@@H]2CCOC2)C3)n1 [Compound 253] |
| 0.025 µM | 100 µg/mL (≈ 179 µM) | 64 µg/mL (≈ 115 µM) | 80 µg/mL (≈ 143 µM) | COc1c(C(=O)O)cnn1-c1cccc(-c2cccc(C)c2OCc2cc(F)c3c(c2)CCN([C@H]2CCOC2)C3)n1 [Compound 254] |
